The structures appear in SMILES notation. Where two headings read alike, the source gives them in different places.

A short description of one series: in vivo. The settings on record: rat, plasma; for AUC at 8 h: 0-8 hr, read-out: AUC0^8 (Area under the plasma concentration time curve). Also on record: species or system Male SD rats. The method, then: In the same manner as Experiment Example 1 mentioned above, 960 mg of PEG-6000, 20 mg of lansoprazole and 20 mg of sodium oleate were evenly melted and dispersed. The resulting dispersion was filled in 200 mg portions into metallic rectal suppository containers for rats and cooled to provide composition for rectal administration for rats. In addition, using 960 mg of Witepsol W-35 (Dynamit Nobel), 20 mg of lansoprazole and 20 mg of sodium oleate, composition for rectal administration for rats in otherwise the same manner as above.
Male SD rats weighing 250-280 g (Japan Clea) were provided. The animals were allowed food and water ad libitum and, then, fasted for about 16 hours (water was available ad libitum). Using the rats fasted for about 16 hours, the composition for rectal administration prepared above were inserted into the anus and, to prevent expulsion of the drug, the perianal skin was clipped.
For control purposes, 80 mg of lansoprazole, 1.5 ml of PEG-400 and 9.5 ml of 0.5% aqueous solution of sodium hydrogen carbonate were admixed to prepare an injectable solution. This solution was injected, in a volume of 0.25 ml, into the femoral vein of each rat (intravenous dosing).
At 0.08, 0.17, 0.25, 0.5, 1.0, 2.0, 4.0 and 8.0 hours after administration,the blood was drawn from the caudal vein of rats using a blood sampling tube containing a small amount of heparin. Each blood sample was centrifuged (3000 rpm, 10 min.) to separate the plasma (0.1 ml) and lansoprazole in each plasma sample was assayed. The assay method was as follows. To 0.1 ml of plasma were added 0.5 ml of 0.5% aqueous solution of sodium hydrogen carbonate and 3 ml of chloroform and the mixture was shaken vigorously for about 5 minutes and centrifuged at 2500 rpm for about 5 minutes. The under layer (chloroform layer), 2 ml, was taken and the solvent chloform was evaporated off by blasting with nitrogen gas. The residue was redissolved in 0.2 ml of HPLC mobile phase and subjected to HPLC analysis (injection amount 50 μl) under the following conditions.
Column: YMC A-303 (5 μm), 4.6 mm in internal diameter and 25 cm in length (YMC).
Mobile phase: a mixture of water, acetonitrile and triethylamine (60:40:1) adjusted to pH 7.0 with phosphoric acid.
Detection: A UV spectrophotometer (exciting wavelength 285 nm)
Column temperature: Room temperature

Series [1] can be described thus: Stability of lansoprazole composition for rectal administration: change in color on storage at 40° C. and 75% relative humidity (Experimental Example 2). Conditions: relative humidity 75%, conclusion from Table 2. The format is physicochemical. The procedure:
(§1) After each of them was melted by warming at 60° C., 20 mg of lansoprazole and a specified amount [See Table 1] of sodium oleate were admixed with the base to prepare a composition. Each composition was stored at room temperature (25° C.) and the change in color was evaluated by comparing it with the composition prior to storage.
Using different fatty acid salts, the stability of lansoprazole in compositions for rectal administration was evaluated by the same procedure as Experiment Example 1. EPG-4000 or Witepsol W-35 was used as the base and sodium oleate, sodium palmitate or sodium caprate was used as the fatty acid salt, each in the amount indicated in Table 2. In this stability test, the test compositions were stored at a temperature of 40° C. and a relative humidity of 75%.

The nature of series [2]: Stability of lansoprazole composition for rectal administration: change in color on storage at room temperature (25° C.) (Experiment Example 1). The class given is physicochemical. The settings on record: conclusion from Table 1. The method, then: Using PEG-4000 (Wako Pure Chemical Industries, Japan) or Witepsol W-35 (Dynamit Novel, Germany) as a base for rectal administration, the stability of lansoprazole in the composition was compared between the inclusion of sodium oleate and the exclusion of sodium oleate.
as §1

Where [3] appears, read: Rectal, Oleaginous base (Witepsol W-35) with sodium oleate.
[4] abbreviates: Rectal, Water-soluble base (PEG-6000) with sodium oleate.

In the case of `Cc1c(OCC(F)(F)F)ccnc1C[S+]([O-])c1nc2ccccc2[nH]1` (stereo not shown) [lansoprazole, 2-[2-[3-methyl-4-(2,2,2-trifluoroethoxy)pyridyl]methylsulfinyl]benzimidazole], in the series “in vivo” (setting [3]), the AUC at 8 h was found to be 1080 ng·h/mL, the concentration at 0.08 h is 90 ng/mL, the concentration at 0.17 h was 140 ng/mL and the concentration at 0.25 h was found to be 210 ng/mL. In “in vivo” (setting [3]), this compound displayed a concentration at 0.5 h of 310 ng/mL, a concentration at 1 h of 360 ng/mL, a concentration at 2 h of 180 ng/mL and a concentration at 4 h of 90 ng/mL. In “in vivo” (setting [3]), this compound had a concentration at 8 h of 50 ng/mL. Moreover, in the series “in vivo” (setting [4]), the AUC at 8 h was 890 ng·h/mL, the concentration at 0.08 h turned out to be 160 ng/mL, the concentration at 0.17 h amounted to 240 ng/mL and the concentration at 0.25 h was 310 ng/mL. Besides, in “in vivo” (setting [4]), the concentration at 0.5 h was found to be 420 ng/mL, the concentration at 1 h was determined as 330 ng/mL, the concentration at 2 h amounted to 110 ng/mL and the concentration at 4 h is 60 ng/mL. In addition, in the series “in vivo” (setting [4]), the concentration at 8 h was found to be 30 ng/mL. In addition, in “in vivo” (iv), the AUC at 8 h came out at 3860 ng·h/mL, the concentration at 0.08 h turned out to be 6960 ng/mL, the concentration at 0.17 h was determined as 5390 ng/mL and the concentration at 0.25 h was found to be 4830 ng/mL. In “in vivo” (iv), this compound yielded a concentration at 0.5 h of 3280 ng/mL, a concentration at 1 h of 910 ng/mL, a concentration at 2 h of 70 ng/mL and a concentration at 4 h of 5 ng/mL. In “in vivo” (iv), this compound registered a concentration at 8 h of 2 ng/mL.
As for `CCCCCCCCCCCCCCCC(=O)[O-].[Na+]` [sodium palmitate], the “contribution to the stability of the active drug” value (“contribution to the stability” below) in series [1] is “contributed a great deal to the stability of the active drug”.
In the case of `CCCCCCCCCC(=O)[O-].[Na+]` [sodium caprate], the “contribution to the stability” value in series [1] is reported as “contributed a great deal to the stability of the active drug”.
Regarding `CCCCCCCC/C=C\CCCCCCCC(=O)[O-].[Na+]` [sodium oleate], the stabilization of lansoprazole entry in series [2] is “stabilized lansoprazole”. The “contribution to the stability” value in series [1] is “contributed a great deal to the stability of the active drug”.
